In brackets after ≈: the same amount, converted by molar mass. Bridge positions count the residues as written; N and C are the ends. Square brackets hold non-standard residues; d marks the D form. Peptide text beside a SMILES is read from it.
Columns and labels:
[1] = test system: S. aureus ATCC 25923; format: cell-based, Staphylococcus aureus
Protocol: (§1) The antimicrobial activity of peptides 9–26 was assessed against a range of reference bacterial strains such as S. aureus ATCC 25923, Staphylococcus epidermidis ATCC 12228, Bacillus megaterium Bm11, E. coli ATCC 25922, P. aeruginosa ATCC 27853, and A. baumannii ATCC 19606 by the broth microdilution assay to determine the minimal growth inhibitory concentration (MIC, Table 1).[59] First, we evaluated the effects produced by the lactam bridge between Lys and Glu residues placed at different positions along the peptide sequence of reference 9. […] When the i,i+7 cyclization strategy was applied (20–23), a dramatic decrease of bacterial inhibition activity was observed. Specifically, the peptides 20, 22, and 23 only affected the microbial growth of the Gram-positive B. megaterium Bm11, at 12.5 μM. […] Peptide 25, which differs from 9 by the presence of an olefin bridge rather than lactam one, dramatically lost the activity (MIC > 100 μM) vs both Gram-positive and Gram-negative strains.
(§2) The determination of MICs was conducted as previously reported.[61] Aliquots of 50 μL of bacterial culture appropriately diluted were added to each well of a 96-well plate to reach a final cell density of 1 × 10^6 CFU/mL and a final peptide concentration ranging from 100 to 0.78 μM (final volume 100 μL).

[2] = CD spectroscopy, secondary structure content (DichroWeb); format: physicochemical
Protocol: The secondary structures of the linear peptide 9 and its stapled analogues 12, 17, and 24–26 were explored by circular dichroism (CD). CD spectroscopy studies were performed in water, and SDS or DPC micelles (20 mM) were used as mimics of the bacterial or mammalian membranes, respectively.[60]
The secondary structure content was predicted based on the CD spectra from 190 to 260 nm using the online server for protein secondary structure analyses, DichroWeb.[61] […] The hydrocarbon-bridged peptide 25 was slightly helical and structured in water, with weak ellipticity at 220 nm. Peptide 25 contains ∼13% regular helix and ∼10% distorted helix, according to the DichroWeb prediction.
All spectra were measured in the 260–190 nm spectral range, 1 nm bandwidth, 4 accumulations, and 100 nm/min scanning speed.[60] Each peptide was dissolved in water to prepare a 1 mM peptide stock solution. The CD spectra were performed in water, in SDS (20 mM) and in DPC (20 mM) using a peptide concentration of 50 μM. The secondary structure content of the peptides was predicted using the online server for protein secondary structure analyses DichroWeb.[61] Input and output units and the wavelength step were θ (mdeg) and 1.0 nm, respectively. The algorithm used was CONTIN-LL,[83] and reference database was set-7. When we have NRMSD > 0.100, we used the CDSSTR method.[83]

[3] = test system: E. coli ATCC 25922; format: cell-based, Escherichia coli
Protocol: as §1, §2

[4] = test system: S. epidermidis ATCC 12228; format: cell-based, Staphylococcus epidermidis
Protocol: as §1, §2

[5] = test system: B. megaterium Bm11; format: cell-based, Bacillus megaterium
Protocol: as §1, §2

[6] = test system: A. baumannii ATCC 19606; format: cell-based, Acinetobacter baumannii
Protocol: as §1, §2

[7] = test system: P. aeruginosa ATCC 27853; format: cell-based, Pseudomonas aeruginosa
Protocol: as §1, §2

[8] = test system: HaCaT cells (human immortalized keratinocytes); assay: Cytotoxicity, MTT assay; format: cell-based; conditions: vs untreated control
Protocol: In particular, the cytotoxicity was evaluated by the 3-(4,5-dimethylthiazol-2-yl)-2,5-diphenyltetrazolium bromide (MTT) assay and is expressed as the percentage of viability of peptide-treated cells compared to that of untreated control cells. As expected, after 2 and 24 h treatments, the cell viability decreased in a concentration-dependent manner for all peptides (Figure 2).
Figure 2 Viability of peptide-treated HaCaT cells evaluated by MTT assay at 2 h (a) and 24 h (b). All data are expressed as a percentage with respect to the untreated control cells and are the mean of three independent experiments ± standard error of the mean (SEM).
The human immortalized keratinocytes HaCaT cells (AddexBio, San Diego, CA) were cultured in Dulbecco’s modified Eagle’s medium containing 4 mM glutamine (DMEMg), supplemented with 10% heat-inactivated fetal bovine serum (FBS) and 0.1 mg/mL of penicillin and streptomycin, at 37 °C and 5% CO2, in 25 or 75 cm^2 flasks.
The quantification of cell viability was performed by the in vitro MTT [3-(4,5-dimethylthiazol-2-yl)-2,5-diphenyltetrazolium bromide] assay, as previously reported,[77] measuring the conversion of the soluble yellow dye MTT to insoluble purple formazan by mitochondrial dehydrogenases. More precisely, 4 × 10^4 HaCaT cells, suspended in DMEMg supplemented with 2% FBS without antibiotics, were plated in each well of the 96-well plate. After overnight incubation at 37 °C and 5% CO2, the medium of each well was replaced by DMEMg containing the peptide at different concentrations, as indicated. Controls were HaCaT cells not treated with the peptide. After 2 and 24 h of incubation at 37 °C and 5% CO2, the medium was discarded; 0.5 mg/mL of MTT in Hank’s buffer was added to each well, and the plate was incubated for further 4 h. Acidified isopropanol was then added to dissolve formazan crystals, and the absorbance of each well at 570 nm was measured using a microplate reader (Infinite M200; Tecan, Salzburg, Austria). The purple color intensity is directly proportional to the number of viable cells, which was expressed as a percentage compared to that of untreated control cells (100%).

[9] = circular dichroism; conditions: water; pH ns; 25 °C; 50 uM
[10] = CD in DPC micelles (20 mM), peptide 50 μM, 25 °C, DichroWeb
[11] = CD in SDS micelles (20 mM), peptide 50 μM, 25 °C, DichroWeb
[12] = CD in water, peptide 50 μM, 25 °C, DichroWeb
[13] = CD in water, peptide 50 μM, 25 °C, DichroWeb (CONTIN-LL, set-7; CDSSTR if NRMSD > 0.100)

Structure (SMILES)	MIC S. aureus ATCC 25923 [1] [µM]	helix-1 (regular α-helix) [2, 10] [%]	helix-2 (distorted α-helix) [2, 10] [%]	random [2, 10] [%]	β-strand-1 (regular β-strand) [2, 10] [%]	β-strand-2 (distorted β-strand) [2, 10] [%]	β-turn [2, 10] [%]	helix-1 (regular α-helix) [2, 11] [%]	helix-2 (distorted α-helix) [2, 11] [%]	random [2, 11] [%]	β-strand-1 (regular β-strand) [2, 11] [%]	β-strand-2 (distorted β-strand) [2, 11] [%]	β-turn [2, 11] [%]	helix-2 (distorted α-helix) [2, 12] [%]	random [2, 12] [%]	β-strand-1 (regular β-strand) [2, 12] [%]	β-strand-2 (distorted β-strand) [2, 12] [%]	β-turn [2, 12] [%]	helix-1 (regular α-helix) [2, 13] [%]	MIC E. coli ATCC 25922 [3] [µM]	other results
CC[C@H](C)[C@H](NC(=O)[C@H](CCCNC(=N)N)NC(=O)[C@@H]1CCCCNC(=O)CC[C@H](NC(=O)[C@H](Cc2ccccc2)NC(=O)[C@H](Cc2c[nH]c3ccccc23)NC(=O)[C@@H]2CCCN2C(=O)[C@@H](NC(=O)[C@@H](N)Cc2ccccc2)C(C)C)C(=O)N[C@@H](CCCCN)C(=O)N[C@@H](Cc2ccccc2)C(=O)N[C@H](CC(C)C)C(=O)N1)C(=O)N[C@@H](CC(C)C)C(N)=O [compound 24] (H-FVPWFEKF[dL]KRIL-NH2; lactam 6-10)	3.12 (≈ 5.32 µg/mL)	69	23	0	0	3	4	59	18	0	11	5	7	6	50	16	9	17	1	25 (≈ 42.6 µg/mL)	helix percentage (total) in SDS solution ([2]; CD in SDS micelles (20 mM), DichroWeb, regular plus distorted helix): about 80%; MIC S. epidermidis ATCC 12228 [4]: 1.56 µM (≈ 2.66 µg/mL); MIC B. megaterium Bm11 [5]: 1.56 µM (≈ 2.66 µg/mL); MIC A. baumannii ATCC 19606 [6]: 3.12 µM (≈ 5.32 µg/mL); MIC P. aeruginosa ATCC 27853 [7]: >100 µM; HaCaT cell viability ([8]; 2 h treatment, 25 μM, mean of three independent experiments): 60–70%; HaCaT cell viability ([8]; 2 h treatment, 50 μM, mean of three independent experiments): less than 40%; HaCaT cell viability ([8]; 24 h treatment (sentence continues from 50 μM)): less than 20%; helicity [9]: 7%
CC[C@H](C)[C@H](NC(=O)[C@H](CCCNC(=N)N)NC(=O)[C@]1(C)CCCC=CCCC[C@](C)(NC(=O)[C@H](Cc2ccccc2)NC(=O)[C@H](Cc2c[nH]c3ccccc23)NC(=O)[C@@H]2CCCN2C(=O)[C@@H](NC(=O)[C@@H](N)Cc2ccccc2)C(C)C)C(=O)N[C@@H](CCCCN)C(=O)N[C@@H](Cc2ccccc2)C(=O)N[C@H](CC(C)C)C(=O)N1)C(=O)N[C@@H](CC(C)C)C(N)=O [compound 25]	>100	54	34	0	0	7	5	41	22	28	0	4	5	10	41	12	8	16	13	>100	aggregation in water (shape of CD spectrum) ([2]; CD in water, peptide 50 μM, 25 °C): form α-helical aggregates; MIC S. epidermidis ATCC 12228 [4]: >100 µM; MIC B. megaterium Bm11 [5]: 100 µM (≈ 172 µg/mL); MIC A. baumannii ATCC 19606 [6]: >100 µM; MIC P. aeruginosa ATCC 27853 [7]: >100 µM; helicity [9]: 23%

From article PMC8389922, “First-in-Class Cyclic Temporin L Analogue: Design, Synthesis, and Antimicrobial Assessment” (Journal of Medicinal Chemistry, 2021)
